# Test results from publication PMC11285948, “The effects of CYP2B6 inactivators on the metabolism of ciprofol” (PLOS ONE, 2024).
# Values joined by “and” are separate entries in the source; they are usually repeats but may differ in a detail not shown here. Equal values may be shown once.
# Columns and labels:
# [1] = Stability of ciprofol QC samples in liver microsome incubation system; assay type: physicochemical; settings: liver microsomes; for ciprofol found after storage, Autosampler / ciprofol found after storage, Room Temperature: n = 5; for Stability: calculated concentration: single replicates
# Experimental: The incubation system was removed from the water bath, and the reaction was terminated immediately by adding 800 μL of reaction termination solution (acetonitrile solution containing 5 μg·mL^-1 D6-ciprofol at 4°C). The mixture was vortexed for 2 min and centrifuged for 15 min, after which the supernatant was transferred to an autosampler vial for HPLC-MS/MS detection.
# (§1) To investigate the stability of ciprofol under a variety of conditions, three groups of liver microsome QC sample solutions were prepared, and one group was immediately processed and analysed as described in Section 2.4.2. Another group was stored at room temperature for 8 hours before treatment and assessment. The other group was treated and placed in the autosampler (4°C) for 24 h and subsequently analysed. In addition, simulated plasma QC samples were prepared in five groups: one group was processed and measured immediately as described in Section 2.4.3, and another group was placed in the autosampler for 24 h after treatment. The other three groups were placed at room temperature for 8 h, stored at -40°C for 30 d, frozen and thawed three times, respectively, and then processed and detected as described in Section 2.4.3. All the above samples were tested in parallel in five batches.
# [2] = Stability of ciprofol QC samples in rat plasma; assay type: physicochemical; design: calculated concentration, mean: unit: ng/mL; settings: for ciprofol found after storage, Autosampler / ciprofol found after storage, Room Temperature / ciprofol found after storage, Freeze–Thaw / ciprofol found after storage, Long-Term Storage / Stability: mean calculated concentration / Stability: calculated concentration: rat plasma; for ciprofol found after storage, Autosampler / ciprofol found after storage, Room Temperature / ciprofol found after storage, Freeze–Thaw / ciprofol found after storage, Long-Term Storage: n = 5; for Stability: calculated concentration: single replicates
# Experimental: 5 μL of IS solution (2.5 μg·mL^-1 D6-ciprofol) was added to 100 μL of plasma and mixed. Then, 300 μL of acetonitrile was added. The mixture was vortexed for 2 min and centrifuged for 10 min, and the supernatant was transferred to an autosampler vial for HPLC-MS/MS detection.
# as §1
# [3] = system: typical substrates of CYP1A2, CYP2B6, and CYP2C19; settings: IVIVE and PBPK simulations; ref Hou et al. 9; cited from earlier work
# [4] = Autosampler for 24 h, QC level H
# [5] = Autosampler for 24 h, QC level L
# [6] = Autosampler for 24 h, QC level M
# [7] = Room - Temperature for 8 h, QC level H
# [8] = Room - Temperature for 8 h, QC level L
# [9] = Room - Temperature for 8 h, QC level M
# [10] = Feeeze - Thaw for three times, QC level H
# [11] = Feeeze - Thaw for three times, QC level L
# [12] = Feeeze - Thaw for three times, QC level M
compound,measurement,setting,value
CC(C)c1cccc([C@H](C)C2CC2)c1O [ciprofol],"ciprofol found after storage, Autosampler","[1]; QC 2.5 μg·mL^-1, autosampler (4°C) for 24 h after treatment",2.54 ± 0.11 µg/mL
same,"ciprofol found after storage, Room Temperature","[1]; QC 2.5 μg·mL^-1, room temperature for 8 h",2.53 ± 0.19 µg/mL
same,"ciprofol found after storage, Autosampler","[1]; QC 10 μg·mL^-1, autosampler (4°C) for 24 h after treatment",9.82 ± 0.44 µg/mL
same,"ciprofol found after storage, Room Temperature","[1]; QC 10 μg·mL^-1, room temperature for 8 h",10.14 ± 0.62 µg/mL
same,"ciprofol found after storage, Autosampler","[1]; QC 75 μg·mL^-1, autosampler (4°C) for 24 h after treatment",72.07 ± 4.83 µg/mL
same,"ciprofol found after storage, Room Temperature","[1]; QC 75 μg·mL^-1, room temperature for 8 h",70.43 ± 3.12 µg/mL
same,Stability: mean calculated concentration,[1]; [4],72.07 µg/mL
same,Stability: calculated concentration,[1]; [4],64.85 µg/mL and 72.55 µg/mL and 71.79 µg/mL and 72.70 µg/mL and 78.45 µg/mL
same,Stability: mean calculated concentration,[1]; [5],2.54 µg/mL
same,Stability: calculated concentration,[1]; [5],2.73 µg/mL and 2.56 µg/mL and 2.49 µg/mL and 2.50 µg/mL and 2.43 µg/mL
same,Stability: mean calculated concentration,[1]; [6],9.82 µg/mL
same,Stability: calculated concentration,[1]; [6],9.08 µg/mL and 9.88 µg/mL and 10.27 µg/mL and 9.89 µg/mL and 9.96 µg/mL
same,Stability: mean calculated concentration,[1]; [7],70.43 µg/mL
same,Stability: calculated concentration,[1]; [7],71.38 µg/mL and 72.99 µg/mL and 69.04 µg/mL and 65.67 µg/mL and 73.05 µg/mL
same,Stability: mean calculated concentration,[1]; [8],2.53 µg/mL
same,Stability: calculated concentration,[1]; [8],2.63 µg/mL and 2.49 µg/mL and 2.51 µg/mL and 2.26 µg/mL and 2.77 µg/mL
same,Stability: mean calculated concentration,[1]; [9],10.15 µg/mL
same,Stability: calculated concentration,[1]; [9],9.80 µg/mL and 9.76 µg/mL and 10.83 µg/mL and 10.81 µg/mL and 9.53 µg/mL
same,"calculated concentration, mean","[2]; QC sample level H, mean of H1-H5",1597.51
same,"ciprofol found after storage, Autosampler","[2]; QC 30 ng·mL^-1, autosampler for 24 h after treatment",32.80 ± 1.93 ng/mL
same,"ciprofol found after storage, Room Temperature","[2]; QC 30 ng·mL^-1, room temperature for 8 h",30.50 ± 2.27 ng/mL
same,"ciprofol found after storage, Freeze–Thaw","[2]; QC 30 ng·mL^-1, three freeze–thaw cycles",33.49 ± 2.03 ng/mL
same,"ciprofol found after storage, Long-Term Storage","[2]; QC 30 ng·mL^-1, −40°C for 30 days",32.70 ± 2.85 ng/mL
same,"ciprofol found after storage, Autosampler","[2]; QC 250 ng·mL^-1, autosampler for 24 h after treatment",250.78 ± 12.31 ng/mL
same,"ciprofol found after storage, Room Temperature","[2]; QC 250 ng·mL^-1, room temperature for 8 h",227.31 ± 5.60 ng/mL
same,"ciprofol found after storage, Freeze–Thaw","[2]; QC 250 ng·mL^-1, three freeze–thaw cycles",245.21 ± 3.43 ng/mL
same,"ciprofol found after storage, Long-Term Storage","[2]; QC 250 ng·mL^-1, −40°C for 30 days",242.73 ± 9.08 ng/mL
same,"ciprofol found after storage, Autosampler","[2]; QC 1600 ng·mL^-1, autosampler for 24 h after treatment",1576.27 ± 41.67 ng/mL
same,"ciprofol found after storage, Room Temperature","[2]; QC 1600 ng·mL^-1, room temperature for 8 h",1464.24 ± 98.79 ng/mL
same,"ciprofol found after storage, Freeze–Thaw","[2]; QC 1600 ng·mL^-1, three freeze–thaw cycles",1604.92 ± 96.88 ng/mL
same,"ciprofol found after storage, Long-Term Storage","[2]; QC 1600 ng·mL^-1, −40°C for 30 days",1597.51 ± 83.93 ng/mL
same,Stability: mean calculated concentration,"[2]; -40℃ for 30 d, QC level L",31.38 ng/mL
same,Stability: calculated concentration,"[2]; -40℃ for 30 d, QC level L",34.12 ng/mL and 32.66 ng/mL and 29.27 ng/mL and 33.13 ng/mL and 27.74 ng/mL
same,Stability: mean calculated concentration,"[2]; -40℃ for 30 d, QC level M",242.73 ng/mL
same,Stability: calculated concentration,"[2]; -40℃ for 30 d, QC level M",234.27 ng/mL and 256.93 ng/mL and 236.05 ng/mL and 240.78 ng/mL
same,Stability: mean calculated concentration,[2]; [4],1576.27 ng/mL
same,Stability: calculated concentration,[2]; [4],1522.23 ng/mL and 1628.44 ng/mL and 1549.96 ng/mL and 1580.01 ng/mL and 1600.71 ng/mL
same,Stability: mean calculated concentration,[2]; [5],31.48 ng/mL
same,Stability: calculated concentration,[2]; [5],32.65 ng/mL and 31.94 ng/mL and 29.92 ng/mL and 33.65 ng/mL and 29.23 ng/mL
same,Stability: mean calculated concentration,[2]; [6],250.78 ng/mL
same,Stability: calculated concentration,[2]; [6],249.99 ng/mL and 245.49 ng/mL and 259.61 ng/mL and 233.66 ng/mL and 265.15 ng/mL
same,Stability: mean calculated concentration,[2]; [10],1604.92 ng/mL
same,Stability: calculated concentration,[2]; [10],1500.04 ng/mL and 1659.28 ng/mL and 1498.65 ng/mL and 1682.66 ng/mL and 1683.96 ng/mL
same,Stability: mean calculated concentration,[2]; [11],32.14 ng/mL
same,Stability: calculated concentration,[2]; [11],33.17 ng/mL and 29.49 ng/mL and 30.69 ng/mL and 33.26 ng/mL and 34.09 ng/mL
same,Stability: mean calculated concentration,[2]; [12],245.21 ng/mL
same,Stability: calculated concentration,[2]; [12],248.65 ng/mL and 241.72 ng/mL and 249.13 ng/mL and 243.02 ng/mL and 243.50 ng/mL
same,Stability: mean calculated concentration,[2]; [7],1464.24 ng/mL
same,Stability: calculated concentration,[2]; [7],1500.17 ng/mL and 1462.05 ng/mL and 1317.85 ng/mL and 1591.16 ng/mL and 1449.95 ng/mL
same,Stability: mean calculated concentration,[2]; [8],29.27 ng/mL
same,Stability: calculated concentration,[2]; [8],29.52 ng/mL and 32.22 ng/mL and 27.05 ng/mL and 30.35 ng/mL and 27.24 ng/mL
same,Stability: mean calculated concentration,[2]; [9],227.31 ng/mL
same,Stability: calculated concentration,[2]; [9],220.38 ng/mL and 226.72 ng/mL and 228.84 ng/mL and 235.64 ng/mL and 224.99 ng/mL
same,"predicted drug-drug interactions with typical substrates of CYP1A2, CYP2B6, and CYP2C19",[3],did not cause drug‒drug interactions
